Laboratory results as given in patent US20130287890A1, “INHIBITOR OF THE PRODUCTION OF ADVANCED GLYCATION END PRODUCTS” (UENO FINE CHEMICALS INDUSTRY, LTD., priority 2012, published 2013).

Legend:
Type in all cases: biochemical
fluorescent AGEs = assay: Quantitative determination of fluorescent AGEs (relative to perylene) after reaction at 120° C. for 60 minutes; conditions: for Fluorescent AGEs: 120° C., 60 minutes
Experimental: Amino acids, carbohydrates and a phosphate buffer solution were charged in a 30 mL glass test tube in each amount shown in Table 1, followed by sealing and stirring. […] The filtrate thus obtained was used as a sample. The amino acids and carbohydrates used are as follows. After weighing 2.5 mg of a standard substance perylene, the standard substance perylene was fully dissolved in 50 mL of deaerated ethanol added thereto to prepare a perylene solution. The perylene solution diluted to the concentration of 10 μM was exposed to excitation light with a wavelength of 386 nm and then the area was calculated by measuring a fluorescence intensity ranging from 410 to 600 nm. […] Food-derived proteins, carbohydrates and a phosphate buffer solution were charged in a 30 mL glass test tube in each amount shown in Table 6, followed by sealing and stirring, and then the mixture was reacted in an autoclave at 120° C. for 60 minutes. Next, the reactant was fractionated by centrifugation at 3,000 rpm for 3 hours using an ultrafiltration unit (VIVA SPIN 20, manufactured by Sartorius Corporation). […] Food-derived proteins and carbohydrates used are as follows: After 0.4 g of a high molecular weight fraction and 8 mL of 6N hydrochloric acid were charged in an ampule and the air in the ampule was replaced with nitrogen, hydrolysis was performed at 110° C. for 16 hours in a heat block. After reaction, 8 mL of 5N sodium hydroxide was added, and pH was adjusted using 1N hydrochloric acid and 1N sodium hydroxide to make pH within a range of 7.2 to 7.6. […] Using the thus obtained filtrate as a sample, fluorescent AGEs were quantitatively determined using the following methods. After weighing 2.5 mg of a standard substance perylene, the standard substance perylene was fully dissolved in 10 mL of deaerated ethanol added thereto to prepare a perylene solution. The perylene solution diluted to the concentration of 10 μM was exposed to excitation light with a wavelength of 386 nm and then the area was calculated by measuring a fluorescence intensity ranging from 410 to 600 nm.

CML = assay: Quantitative determination of CML (CircuLex ELISA kit) after reaction at 120° C. for 60 minutes; conditions: Test Example 1; for CML: lysine + arginine 0.2 g each, carbohydrate 3.40 g each, 120° C., 60 minutes
Experimental: Amino acids, carbohydrates and a phosphate buffer solution were charged in a 30 mL glass test tube in each amount shown in Table 1, followed by sealing and stirring. […] The filtrate thus obtained was used as a sample. The amino acids and carbohydrates used are as follows. Using CircuLex CML/Nε-(carboxymethyl) lysine ELISA kit (manufactured by CycLex Co., Ltd.), quantitative determination of CML was performed. Thirty (30) or more minutes before use, reagents and CML solid-phase wells were put to room temperature. […] By performing dilution with standard dilution buffers, standards 1 to 7 were prepared. The sample was diluted as necessary with sample dilution buffers. A CML-HSA standard and 60 μL of the sample were dispensed into a 96-well plate, which is not an accessory to the kit. Next, ultrapure water (Milli-Q water) was added to a first antibody powder, and by diluting with sample dilution buffers, a first antibody solution was prepared, and then 60 μL of the antibody solution was dispensed into the plate and mixed. […] Then, the reaction solution was discarded, and 350 μL of rinsing fluid was dispensed to wash the plate. The washing was performed for 4 times. After liquid on the plate was removed, 100 μL of a second antibody solution was dispensed and reacted at 25° C. for 1 hour while being shaken at 300 rpm. The reaction solution was discarded, and the plate was washed for 4 times with 350 μL of rinsing fluid again. Liquid on the plate was removed, and 100 μL of a color coupler was dispensed. Then, the solution was left to stand for 10 minutes under a light shielding condition while being shaken at 300 rpm. Finally, 100 μL of a reaction stop solution was dispensed, and within 30 minutes after the dispensing, measurement was performed at main wavelength 450 nm/reference wavelength 595 nm using a micro-plate reader. The concentration of CML was determined using the calibration curve of a CML standard solution, based on measurement values of the sample.

3-DG = assay: Quantitative determination of 3-DG (HPLC) after reaction of amino acids or food-derived proteins with carbohydrates at 120° C. for 60 minutes; conditions: for 3-DG: 120° C., 60 minutes
Experimental: Amino acids, carbohydrates and a phosphate buffer solution were charged in a 30 mL glass test tube in each amount shown in Table 1, followed by sealing and stirring. After reacting in an autoclave at 120° C. for 60 minutes, the reaction solution was cooled and then filtered through a 0.2 μm filter. The filtrate thus obtained was used as a sample. The amino acids and carbohydrates used are as follows.
To 2 mL of a sample, the same amount of a 60% perchloric acid solution was added to deproteinize the sample. The sample was neutralized with 4 mL of an aqueous saturated sodium hydrogen carbonate solution and 0.8 mL of a 0.1% methanol solution of 2,3-diaminonaphthalene was added, and then the mixture was reacted at 4° C. for 16 hours. Next, the reactant was extracted with 4.4 mL of ethyl acetate, concentrated to dryness using an evaporator, dissolved in 5 mL of methanol, and then filtered through a 0.45 μm filter. The filtrate was subjected to high-performance liquid chromatography and 3-DG was quantitatively determined under the following measurement conditions.
Injection amount: 20 μL Column: TSK-GEL, ODS-80Ts (4.6×150 mm, manufactured by TOSOH CORPORATION) Column temperature: 30° C. Mobile phase: 50 mM phosphoric acid:methanol:acetonitrile=7:1.5:1.5 Flow rate: 1 mL/min.
Food-derived proteins, carbohydrates and a phosphate buffer solution were charged in a 30 mL glass test tube in each amount shown in Table 6, followed by sealing and stirring, and then the mixture was reacted in an autoclave at 120° C. for 60 minutes. Next, the reactant was fractionated by centrifugation at 3,000 rpm for 3 hours using an ultrafiltration unit (VIVA SPIN 20, manufactured by Sartorius Corporation). The obtained low molecular weight fraction was used as a sample for determination of 3-DG, while the obtained high molecular weight fraction was used as a sample for the determination of fluorescent AGEs, RAGE agonist activity and RAGE antagonist activity. Food-derived proteins and carbohydrates used are as follows: […]

[1] = Test Example 1, amino acids, compared with the test section 1 containing only sucrose
[2] = Test Example 1, lysine + arginine 0.2 g each, carbohydrate 3.40 g each
[3] = Test Example 2, gliadin 0.1 g + carbohydrate 3.4 g
[4] = Test Example 2, lactalbumin 0.05 g + carbohydrate 3.4 g
[5] = Test Example 2, lactic casein 0.01 g + carbohydrate 3.4 g
[6] = Test Example 2, ovalbumin 0.05 g + carbohydrate 3.4 g
[7] = Test Example 2, ovalbumin, lactalbumin, gliadin, lactic casein and soybean casein, compared with sections containing sucrose
[8] = Test Example 2, soybean casein 0.01 g + carbohydrate 3.4 g
[9] = Test Example 1, lysine + arginine 0.2 g each, carbohydrate 3.40 g each, 20 mL phosphate buffer

Row | SMILES | production of fluorescent AGEs (fluorescent AGEs; [1]) | Fluorescent AGEs (fluorescent AGEs; [2]) | Fluorescent AGEs (fluorescent AGEs; [3]) | Fluorescent AGEs (fluorescent AGEs; [4]) | Fluorescent AGEs (fluorescent AGEs; [5]) | Fluorescent AGEs (fluorescent AGEs; [6]) | production of AGEs (fluorescent AGEs; [7]) | Fluorescent AGEs (fluorescent AGEs; [8]) | production of CML (CML; amino acids, compared with the test section 1 containing only sucrose) | CML (CML) | production of 3-DG (3-DG; [1]) | 3-DG (3-DG; [9]) | 3-DG (3-DG; [3]) | 3-DG (3-DG; [4]) | 3-DG (3-DG; [5]) | 3-DG (3-DG; [6]) | production of 3-DG (3-DG; [7]) | 3-DG (3-DG; [8])
1 | OC[C@@H](O)[C@@H](O[C@H]1O[C@H](CO)[C@@H](O)[C@H](O)[C@H]1O)[C@H](O)[C@@H](O)CO [Maltitol] | decreased | 39 nmol/1 g of amino acid | 632 nmol/1 g of protein | 105 nmol/1 g of protein | 84 nmol/1 g of protein | 136 nmol/1 g of protein | decreased | 20 nmol/1 g of protein | decreased | 15.0 nmol/1 g of amino acid | significantly decreased | 36 nmol/1 g of amino acid | 240 nmol/1 g of protein | 656 nmol/1 g of protein | 2,734 nmol/1 g of protein | 523 nmol/1 g of protein | significantly decreased | 1,446 nmol/1 g of protein
2 | OC[C@H]1O[C@@](CO)(O[C@H]2O[C@H](CO)[C@@H](O)[C@H](O)[C@H]2O)[C@@H](O)[C@@H]1O [Sucrose, reference compound] |  | 79 nmol/1 g of amino acid | 649 nmol/1 g of protein | 119 nmol/1 g of protein | 100 nmol/1 g of protein | 168 nmol/1 g of protein |  | 18 nmol/1 g of protein |  | 17.4 nmol/1 g of amino acid |  | 151 nmol/1 g of amino acid | 2,645 nmol/1 g of protein | 4,758 nmol/1 g of protein | 22,464 nmol/1 g of protein | 4,532 nmol/1 g of protein |  | 24,285 nmol/1 g of protein
